By IC50 is commonly meant the concentration that inhibits the measured activity by half.

Where two headings read alike, the source gives them in different places.

The target in the assay is T1, hT2R54 (Homo sapiens, UniProt P59534).
T1 construct: expressed in transfected cells; it overexpresses a promiscuous G protein
T1 sequence (P59534 1-338): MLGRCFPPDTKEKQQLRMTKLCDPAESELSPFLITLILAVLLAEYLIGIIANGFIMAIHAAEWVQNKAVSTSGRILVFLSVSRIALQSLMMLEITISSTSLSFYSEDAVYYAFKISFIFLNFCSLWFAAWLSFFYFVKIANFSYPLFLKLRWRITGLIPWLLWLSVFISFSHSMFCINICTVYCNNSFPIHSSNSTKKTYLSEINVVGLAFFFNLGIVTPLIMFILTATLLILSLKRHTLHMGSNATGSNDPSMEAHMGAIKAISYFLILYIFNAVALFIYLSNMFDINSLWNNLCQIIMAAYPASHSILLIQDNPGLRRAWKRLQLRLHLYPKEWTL
Description: Cell-based assay for measuring hT2R54 inhibition (FLIPR calcium, Fluo4AM, acetaminophen as bitter agonist). Conditions: cells stably expressing hT2R54 and a promiscuous G protein, read-out: hT2R54 IC50. The procedure:
Cells stably expressing hT2R54 and a promiscuous G protein were seeded in 384 well plates 24 hours prior to the experiment. Cells were loaded with the calcium indicator Fluo4AM, washed and loaded in a FLIPR instrument with a compound plate containing increasing doses of acetaminophen in quadruplicates and prepared at 2× of final concentration. Baseline was recorded for 10 seconds, then 25 μl of […] was added onto 25 μl of cells and resulting changes in fluorescence were monitored over an additional 3 minutes. The host cell line overexpressing the G protein but not hT2R54 was treated as described above.
The ability of a test compound that blocks bitter taste elicited through hT2R54 was measured in this assay, as follows. Cells stably expressing hT2R54 and a promiscuous G protein were seeded in 384 well plates 24 hours prior to the experiment. Cells were loaded with the calcium indicator Fluo4AM, washed and loaded in a FLIPR instrument with a compound plate containing increasing doses of acetaminophen in buffer and increasing doses of acetaminophen with depicted fixed concentrations of Cmpd 109 (Table 4). Base line was recorded for 10 seconds, then 25 μl of compound and compound mixtures were added onto 25 μl of cells and resulting changes in fluorescence were monitored over an additional 3 minutes. The concentration of test compound that blocks half of the response when the bitter compound alone is present is presented as the EC50 or IC50 value.
In the examples above, the EC50 of compounds for blocking bitter taste elicited through T2R54 was measured in the same manner.

For the compound `CC(=O)c1cc2c(cc1NC(=O)C(C)(C)N1CCOCC1)OCO2` [compound 111, N-(6-Acetylbenzo[d][1,3]dioxol-5-yl)-2-methyl-2-morpholinopropanamide], under “Table 4”, the IC50 is 207 nM.
Same read-out and setting: in the case of `CCOC(=O)[C@@H]1CCCN1CC(=O)Nc1cc2c(cc1C(C)=O)OCO2` [compound 112, Ethyl (2-((6-acetylbenzo[d][1,3]dioxol-5-yl)amino)-2-oxoethyl)-L-prolinate] it was 206 nM; in that of `CCOC(=O)C1CCCCN1CC(=O)Nc1cc2c(cc1C(C)=O)OCO2` (stereo not drawn) [compound 113, Ethyl 1-(2-((6-Acetylbenzo[d][1,3]dioxol-5-yl)amino)-2-oxoethyl)piperidine-2-carboxylate], 78 nM; in that of `CCOC(=O)C1CCN(CC(=O)Nc2cc3c(cc2C(C)=O)OCO3)C1` (stereo not drawn) [compound 114, Ethyl 1-(2-((6-acetylbenzo[d][1,3]dioxol-5-yl)amino)-2-oxoethyl)pyrrolidine-3-carboxylate], 61 nM.
The same measure, in the same setting: as for `CCOC(=O)C1CCCN(CC(=O)Nc2cc3c(cc2C(C)=O)OCO3)C1` (stereo not drawn) [compound 115, Ethyl 1-(2-((6-Acetylbenzo[d][1,3]dioxol-5-yl)amino)-2-oxoethyl)piperidine-3-carboxylate], the figure is 9 nM; as for `CCOC(=O)C1CCN(CC(=O)Nc2cc3c(cc2C(C)=O)OCO3)CC1` [compound 116, Ethyl 1-(2-((6-acetylbenzo[d][1,3]dioxol-5-yl)amino)-2-oxoethyl)piperidine-4-carboxylate], 103 nM; as for `CCOC(=O)C1CCCN(CC(=O)Nc2cc3c(cc2OC)OCO3)C1` (stereo not drawn) [compound 117, Ethyl 1-(2-((6-Methoxybenzo[d][1,3]dioxol-5-yl)amino)-2-oxoethyl)piperidine-3-carboxylate], 188 nM.
For the compound `CCOC(=O)C1CCCN(CC(=O)Nc2cc3c(cc2C(C)=O)OCCO3)C1` (stereo not drawn) [compound 118, Ethyl 1-(2-((7-Acetyl-2,3-dihydrobenzo[b][1,4]dioxin-6-yl)amino)-2-oxoethyl)piperidine-3-carboxylate], where the note is “Table 4”, the IC50 was found to be 24 nM.
In the case of `CC(=O)c1cc2c(cc1NC(=O)CN1CC(C)OC(C)C1)OCO2` (stereo not drawn) [compound 119], the IC50 (Table 4) was found to be 246 nM.
Take `CC(=O)c1cc2c(cc1NC(=O)CN1CCC(O)CC1)OCO2` [compound 120]: the IC50 (Table 4) is under 10 nM.
In the case of `COC1CCN(CC(=O)Nc2cc3c(cc2C(C)=O)OCO3)CC1` [compound 121], the IC50 (Table 4) worked out at 65 nM.
On the same count and under the same terms, in the case of `CC(=O)c1cc2c(cc1NC(=O)CN1CCCC(O)C1)OCO2` (stereo not drawn) [compound 122] it was under 20 nM; in that of `COC1CCCN(CC(=O)Nc2cc3c(cc2C(C)=O)OCO3)C1` (stereo not drawn) [compound 123], 2 nM.
Still for that read-out and setting: in the case of `COC1CCN(C(C)(C)C(=O)Nc2cc3c(cc2C(C)=O)OCO3)CC1` [compound 124] it was 2140 nM.
Still for that read-out and setting: as for `COC(=O)C1CCN(CC(=O)Nc2cc3c(cc2C(C)=O)OCO3)CC1` [compound 125], the figure is 100 nM; as for `COC(=O)C1CN(CC(=O)Nc2cc3c(cc2C(C)=O)OCO3)CCC1=O` (stereo not drawn) [compound 126], 154 nM.
`CCOC(=O)C1CN(CC(=O)Nc2cc3c(cc2C(C)=O)OCO3)CCO1` (stereo not drawn) [compound 127]: the IC50 (Table 4) was 13 nM.
On the same count and under the same terms, in the case of `CCOC(=O)C1COCCN1CC(=O)Nc1cc2c(cc1C(C)=O)OCO2` (stereo not drawn) [compound 128] it was 79 nM; in that of `CC(=O)c1cc2c(cc1NC(=O)CN1CCN(C(=O)OC(C)(C)C)CC1)OCO2` [compound 129], under 1000 nM.
The same measure, in the same setting: in the case of `CC(=O)c1cc2c(cc1NC(=O)CN(C)C1CCCCC1)OCO2` [compound 130] it was 312 nM.
Turning to `CCN(CCOC)CC(=O)Nc1cc2c(cc1C(C)=O)OCO2` [compound 131], the 50% inhibitory concentration (IC50) (Table 4) is 2000 nM.
On the same count and under the same terms, as for `COC(=O)CN(C)CC(=O)Nc1cc2c(cc1C(C)=O)OCO2` [compound 132], the figure is 659 nM.
On the same count and under the same terms, in the case of `CCOC(=O)CCN(C)CC(=O)Nc1cc2c(cc1C(C)=O)OCO2` [compound 133] it was 113 nM.
For `CC(=O)c1cc2c(cc1NC(=O)CN(C)CCC(=O)N(C)C)OCO2` [compound 134], the IC50 (Table 4) worked out at 960 nM.
Same read-out and setting: in the case of `CCNC(=O)CCN(C)CC(=O)Nc1cc2c(cc1C(C)=O)OCO2` [compound 135] it was 500 nM; in that of `CCOC(=O)CCN(CC)CC(=O)Nc1cc2c(cc1C(C)=O)OCO2` [compound 136], 179 nM; in that of `CCOC(=O)[C@@H]1CCCC[C@H]1N(C)CC(=O)Nc1cc2c(cc1C(C)=O)OCO2` [compound 137], 2830 nM.
On to `CC(=O)c1cc2c(cc1NC(=O)CN(C)C1CCCN(C(=O)OC(C)(C)C)C1)OCO2` (stereo not drawn) [compound 138], for which, under “Table 4”, the IC50 came to 150 nM.
As to `CC(=O)c1cc2c(cc1NC(=O)CNC1CCN(C(=O)OC(C)(C)C)CC1)OCO2` [compound 139], the IC50 (Table 4) amounted to 176 nM.
On the same count and under the same terms, as for `CC(=O)c1cc2c(cc1NC(=O)CN(C)C1CCN(C(=O)OC(C)(C)C)CC1)OCO2` [compound 140], the figure is 433 nM; as for `CCOC(=O)C1CCC(N(C)CC(=O)Nc2cc3c(cc2C(C)=O)OCO3)CC1` (stereo not drawn) [compound 141], 168 nM; as for `CCOC(=O)CCN(C)CC(=O)Nc1cc2c(cc1OC)OCO2` [compound 142], 230 nM.
On the same count and under the same terms, as for `COc1cc2c(cc1NC(=O)CN1CCOCC1)OCO2` [compound 143], the figure is 142 nM; as for `COc1cc2c(cc1NC(=O)CN1CCCC(O)C1)OCO2` (stereo not drawn) [compound 144], under 2000 nM.
Still for that read-out and setting: in the case of `COc1cc2c(cc1NC(=O)CN1CCCC(OC)C1)OCO2` (stereo not drawn) [compound 145] it was 575 nM; in that of `COc1cc2c(cc1NC(=O)CN1CCC(O)CC1)OCO2` [compound 146], under 2000 nM.
`COc1cc2c(cc1NC(=O)CN1CCC(OC)CC1)OCO2` [compound 147]: the IC50 (Table 4) was found to be 448 nM.
On the same count and under the same terms, in the case of `COc1cc2c(cc1NC(=O)CN1CCN(C(=O)OC(C)(C)C)CC1)OCO2` [compound 148] it was under 2000 nM.
On the same count and under the same terms, as for `COc1cc2c(cc1NC(=O)CN1CCCc3cccc(F)c31)OCO2` [compound 149], the figure is 885 nM; as for `COc1cc2c(cc1NC(=O)CN1CCc3ccccc31)OCO2` [compound 150], 393 nM; as for `CCOC(=O)C1CCCN(CC(=O)Nc2cc3c(cc2Cl)OCCO3)C1` (stereo not drawn) [compound 151], 152 nM.
The same measure, in the same setting: in the case of `CC(=O)c1cc2c(cc1NC(=O)CN1CCOCC1)OCCO2` [compound 152] it was 630 nM; in that of `CCOC(=O)C1CCN(CC(=O)Nc2cc3c(cc2C(C)=O)OCCO3)CC1` [compound 153], 24 nM.
For `CNC(=O)C1CCCN(CC(=O)Nc2cc3c(cc2C(C)=O)OCO3)C1` (stereo not drawn) [compound 154, 1-(2-((6-Acetylbenzo[d][1,3]dioxol-5-yl)amino)-2-oxoethyl)-N-methylpiperidine-3-carboxamide], the IC50 (Table 5) was determined as 24 nM.
Regarding `CCNC(=O)C1CCCN(CC(=O)Nc2cc3c(cc2C(C)=O)OCO3)C1` (stereo not drawn) [compound 155], the concentration for half-maximal inhibition (IC50) (Table 5) worked out at 210 nM.
In the case of `CC(=O)c1cc2c(cc1NC(=O)CN1CCCC(C(=O)NCc3ccccc3)C1)OCO2` (stereo not drawn) [compound 156], the IC50 (Table 5) stood at 114 nM.
On the same count and under the same terms, as for `CC(=O)c1cc2c(cc1NC(=O)CN1CCCC(C(=O)Nc3ccccc3)C1)OCO2` (stereo not drawn) [compound 157], the figure is 565 nM; as for `CC(=O)c1cc2c(cc1NC(=O)CN1CCCC(C(=O)N(C)C)C1)OCO2` (stereo not drawn) [compound 158], 107 nM.
Take `CC(=O)c1cc2c(cc1NC(=O)CN1CCCC(C(=O)N3CCOCC3)C1)OCO2` (stereo not drawn) [compound 159]: the IC50 (Table 5) came out at 497 nM.
On the same count and under the same terms, in the case of `CNC(=O)C1CCCCN1CC(=O)Nc1cc2c(cc1C(C)=O)OCO2` (stereo not drawn) [compound 160] it was 1270 nM.
The same measure, in the same setting: as for `CNC(=O)C1CCN(CC(=O)Nc2cc3c(cc2C(C)=O)OCO3)CC1` [compound 161], the figure is 1350 nM.
The same measure, in the same setting: in the case of `CCNC(=O)C1CCN(CC(=O)Nc2cc3c(cc2C(C)=O)OCO3)CC1` [compound 162] it was 747 nM; in that of `CC(=O)c1cc2c(cc1NC(=O)CN1CCC(C(=O)Nc3cccnc3)CC1)OCO2` [compound 163], 459 nM; in that of `CC(=O)c1cc2c(cc1NC(=O)CN1CCC(C(=O)Nc3ccccc3)CC1)OCO2` [compound 164], 2090 nM.
Regarding `CC(=O)c1cc2c(cc1NC(=O)CN1CCC(C(=O)NCc3ccccc3)CC1)OCO2` [compound 165], the IC50 (Table 5) is 1400 nM.
Consider `CC(=O)NC1CCN(CC(=O)Nc2cc3c(cc2C(C)=O)OCO3)CC1` [compound 166, 2-(4-Acetamidopiperidin-1-yl)-N-(6-acetylbenzo[d][1,3]dioxol-5-yl)acetamide], for which the IC50 (Table 6) was 264 nM.
Same read-out and setting: in the case of `CCC(=O)NC1CCN(CC(=O)Nc2cc3c(cc2C(C)=O)OCO3)CC1` [compound 167] it was 310 nM.

The record behind these values is patent US12295396B2, “Antagonists of T2R54 and compositions and uses thereof” (Firmenich Incorporated, priority 2018, dated 2025).
